Measurements published in the NIST ThermoML archive (doi:10.1016/j.jct.2011.07.018).

Key:
[1] = 298.15 K; 101.33 kPa; Liquid; Vibrating tube method
[2] = excess molar enthalpy (molar enthalpy of mixing); xn = mol fraction of the nth substance listed; details: 298.15 K, 101 kPa, Liquid, isothermal titration calorimeter

CCCCCCCC(=O)O [octanoic acid]
Details	mass density [kg/m3]
[1]	906.02

C[S+](C)[O-] [dimethyl sulfoxide]
Details	mass density [kg/m3]
[1]	1095.32

CCCCCC(=O)O [hexanoic acid] + C[S+](C)[O-]
[2]
Details	excess molar enthalpy [kcal/mol]
x2 = 0.042	-0.0478
x2 = 0.081	-0.0963
x2 = 0.117	-0.144
x2 = 0.15	-0.189
x2 = 0.181	-0.233
x2 = 0.209	-0.275
x2 = 0.241	-0.322
x2 = 0.271	-0.365
x2 = 0.298	-0.405
x2 = 0.323	-0.441
x2 = 0.346	-0.473
x2 = 0.369	-0.502
x2 = 0.38	-0.514
x2 = 0.388	-0.523
x2 = 0.397	-0.533
x2 = 0.406	-0.541
x2 = 0.415	-0.55
x2 = 0.425	-0.557
x2 = 0.436	-0.565
x2 = 0.447	-0.571
x2 = 0.457	-0.575
x2 = 0.467	-0.579
x2 = 0.477	-0.582
x2 = 0.488	-0.583
x2 = 0.498	-0.582
x2 = 0.508	-0.58
x2 = 0.519	-0.577
x2 = 0.53	-0.572
x2 = 0.541	-0.564
x2 = 0.553	-0.556
x2 = 0.563	-0.547
x2 = 0.574	-0.537
x2 = 0.585	-0.525
x2 = 0.596	-0.512
x2 = 0.608	-0.497
x2 = 0.62	-0.482
x2 = 0.631	-0.468
x2 = 0.642	-0.452
x2 = 0.653	-0.436
x2 = 0.665	-0.419
x2 = 0.677	-0.401
x2 = 0.69	-0.382
x2 = 0.701	-0.366
x2 = 0.712	-0.349
x2 = 0.724	-0.332
x2 = 0.736	-0.314
x2 = 0.748	-0.296
x2 = 0.761	-0.277
x2 = 0.772	-0.261
x2 = 0.784	-0.244
x2 = 0.796	-0.227
x2 = 0.808	-0.209
x2 = 0.821	-0.192
x2 = 0.834	-0.174
x2 = 0.846	-0.159
x2 = 0.858	-0.143
x2 = 0.87	-0.128
x2 = 0.883	-0.112
x2 = 0.896	-0.097
x2 = 0.91	-0.0844
x2 = 0.922	-0.0691
x2 = 0.934	-0.0564
x2 = 0.943	-0.0442
x2 = 0.959	-0.0323
x2 = 0.973	-0.0208
x2 = 0.986	-0.01

CCCCCCO [hexan-1-ol]
Details	mass density [kg/m3]
[1]	815.21

CCCCCC(=O)O [hexanoic acid] + CCCCCCO
[2]
Details	excess molar enthalpy [kcal/mol]
x2 = 0.025	0.0232
x2 = 0.048	0.0423
x2 = 0.07	0.0586
x2 = 0.091	0.0722
x2 = 0.112	0.0841
x2 = 0.131	0.0942
x2 = 0.154	0.106
x2 = 0.176	0.115
x2 = 0.198	0.123
x2 = 0.218	0.129
x2 = 0.238	0.134
x2 = 0.256	0.139
x2 = 0.268	0.143
x2 = 0.277	0.145
x2 = 0.287	0.147
x2 = 0.298	0.149
x2 = 0.309	0.15
x2 = 0.321	0.152
x2 = 0.335	0.153
x2 = 0.349	0.155
x2 = 0.365	0.156
x2 = 0.377	0.156
x2 = 0.39	0.156
x2 = 0.404	0.156
x2 = 0.419	0.156
x2 = 0.435	0.156
x2 = 0.452	0.155
x2 = 0.47	0.153
x2 = 0.491	0.151
x2 = 0.506	0.149
x2 = 0.523	0.147
x2 = 0.54	0.144
x2 = 0.559	0.141
x2 = 0.579	0.137
x2 = 0.601	0.132
x2 = 0.624	0.127
x2 = 0.649	0.121
x2 = 0.669	0.115
x2 = 0.691	0.109
x2 = 0.714	0.103
x2 = 0.738	0.0956
x2 = 0.765	0.0872
x2 = 0.793	0.0784
x2 = 0.817	0.07
x2 = 0.843	0.0609
x2 = 0.87	0.0511
x2 = 0.899	0.0404
x2 = 0.931	0.0272
x2 = 0.964	0.0141

CN(C)C=O [dimethylformamide]
Details	mass density [kg/m3]
[1]	944.34

CCCCCCC(C)=O [2-octanone]
Details	mass density [kg/m3]
[1]	814.32

CCCCCCCCO [octan-1-ol]
Details	mass density [kg/m3]
[1]	821.67

CCCCCC(=O)O [hexanoic acid] + CN(C)C=O
[2]
Details	excess molar enthalpy [kcal/mol]
x2 = 0.048	-0.0576
x2 = 0.092	-0.11
x2 = 0.132	-0.158
x2 = 0.169	-0.202
x2 = 0.203	-0.243
x2 = 0.24	-0.288
x2 = 0.274	-0.328
x2 = 0.304	-0.363
x2 = 0.333	-0.394
x2 = 0.359	-0.42
x2 = 0.383	-0.442
x2 = 0.412	-0.467
x2 = 0.439	-0.484
x2 = 0.464	-0.496
x2 = 0.486	-0.503
x2 = 0.502	-0.506
x2 = 0.516	-0.506
x2 = 0.53	-0.505
x2 = 0.543	-0.503
x2 = 0.556	-0.499
x2 = 0.568	-0.494
x2 = 0.579	-0.489
x2 = 0.589	-0.483
x2 = 0.602	-0.475
x2 = 0.613	-0.467
x2 = 0.625	-0.458
x2 = 0.635	-0.449
x2 = 0.645	-0.44
x2 = 0.656	-0.43
x2 = 0.666	-0.42
x2 = 0.676	-0.409
x2 = 0.685	-0.4
x2 = 0.694	-0.39
x2 = 0.702	-0.381
x2 = 0.71	-0.372
x2 = 0.718	-0.363
x2 = 0.726	-0.352
x2 = 0.735	-0.342
x2 = 0.743	-0.332
x2 = 0.75	-0.323
x2 = 0.757	-0.314
x2 = 0.764	-0.306
x2 = 0.77	-0.298
x2 = 0.776	-0.291
x2 = 0.782	-0.283
x2 = 0.789	-0.275
x2 = 0.794	-0.268
x2 = 0.799	-0.261
x2 = 0.812	-0.241
x2 = 0.824	-0.226
x2 = 0.836	-0.21
x2 = 0.849	-0.194
x2 = 0.862	-0.177
x2 = 0.875	-0.159
x2 = 0.889	-0.142
x2 = 0.903	-0.124
x2 = 0.916	-0.107
x2 = 0.929	-0.0906
x2 = 0.942	-0.0736
x2 = 0.956	-0.0557
x2 = 0.97	-0.0373
x2 = 0.985	-0.0186
